Assay results taken from patent US12215389B2, “Compositions for detecting epigenetic modifications” (EXACT SCIENCES CORPORATION, priority 2007, dated 2025).

Tested on: methylated gene promoters in plasma DNA
Test: Real-time MSP on plasma DNA
Design: species or system human
Conditions: for % Specificity (all 59 controls), plasma set 1: plasma training set 1; for % Sensitivity adenomas plasma set 2: increased plasma equivalent of DNA per real-time MSP assay / % Specificity (all 89 controls), plasma set 2: increased plasma equivalent of DNA per real-time MSP assay: plasma training set 2
Protocol: 10 ml of blood was obtained per individual using EDTA Vacutainer™ tubes. Individuals with no suspicious findings, adenomas or carcinomas based on colonoscopy were enrolled in the present study. Within 4 hrs from the blood drawing, the plasma fraction was separated from the cell fraction by centrifugation at 1500 g for 15 min (4° C.). The plasma was transferred to new tubes and once again centrifuged (1500 g, 15 min, 4° C.), after which the supernatant was transferred to new tubes and stored at −80° C. until further use. Samples were shipped on dry ice.
DNA isolation from plasma samples (1.2 to 6 ml) was performed using an upscaled phenol-chloroform DNA isolation method using the 15 ml of Heavy Phase lock Gel tubes (PLG tubes) (Eppendorf, cat #0032 005.152) or alternatively the ChargeSwitch® gDNA 1 ml serum kit from Invitrogen (cat #CS11040).
Plasma samples were thawed and 1/10 volume of 10× buffer (240 mM EDTA (pH=8.0), 750 mM NaCl), 1/10 volume of 10% SDS and 5 μl of Proteinase K (20 mg/ml stock solution) per 1 ml of sample (e.g. 15 μl for 3 ml of sample) was added to each plasma sample. This mixture was incubated overnight at 48° C. at constant shaking (200 RPM).
Subsequently the PLG tube was centrifuged at 2500 RCF for 3 min, sample mixture and approximately the same volume of phenol/chloroform (Invitrogen, cat #15593049) were added to it. This solution was briefly vortexed, mixed for 10 min using a tube rocker at room temperature and centrifuged for 5 min at 2500 RCF. In case the retrieved sample volume was ≤4 ml, an equal volume of phenol/chloroform was added. The upper aqueous layer was phenol/chloroform-treated for a second time.
DNA was precipated from the upper aqueous layer by adding 5 μl glycogen, 1/10 volume of 7.5 M Ammonium Acetate and 2-2.5 volumes of cold (−20° C.) 100% ethanol. Tubes were gently inverted and incubated at −20° C. for at least 1 h, followed by a centrifugation step at 17000 RCF for 30 min (4° C.). Ethanol was carefully removed by pipetting. Pellets were washed with 2 ml freshly prepared 70% ethanol, vortexed gently and submitted to a centrifugation step at 17000 RCF for 15 min at 4° C. After careful removal of the remaining ethanol, pellets were air dried and resuspended in 45 μl of LoTE pH 8.0. The isolated DNA is stored at −80° C. until further processing.
The complete content of DNA isolated in above procedure was subjected to sodium bisulfite treatment (BT) using the EZ-96 DNA Methylation kit from Zymo Research (Cat #D5003) performed on a pipetting robot (Tecan Freedom EVOII, Roma, Liha, Mca, Te-Vacs). Briefly, 45 μl of plasma DNA sample was mixed with 5 μl of M-Dilution Buffer (provided in kit) and incubated at 37° C. for 15 min shaking at 1100 RPM. This mixture was further incubated with 100 μl of diluted CT conversion reagent (provided in kit) shaking at 70° C. for 3 hours (protected from light). Subsequently the modified DNA was desalted and desulfonated according to manufacturer's instructions and eluted in either 40 μl or 20 μl of Tris-HCl 1 mM pH8.0, depending on the applied concentration procedure. The eluted material was stored at −80° C. until further processing.
2.4 μl of the modified DNA was added to a PCR mix (total volume 12 μl) containing home-made buffer solution (final concentrations are summarized: 16.6 mM (NH4)2SO4, 67 mM Tris (pH 8.8), 6.7 mM MgCl2, 10 mM β-mercaptoethanol), dNTPs (5 mM; Amersham Biosciences cat #27-2035-02), methylation specific forward primer (6 ng), methylation specific reverse primer (18 ng), molecular beacon (0.16 μM) and Jumpstart DNA Taq polymerase (0.4 units; Sigma Cat #D9307).
A standard curve was included (9.6×10^5—9.6 copies) to determine copy numbers of unknown samples by interpolation of their Ct values to the standard curve.
DNA was isolated following the upscaled phenol-chloroform procedure; subsequently the whole DNA sample was modified as described above.

Row | Substance | % Specificity (all 59 controls), plasma set 1 [%] | % Sensitivity adenomas plasma set 2: increased plasma equivalent of DNA per real-time MSP assay [%] | % Specificity (all 89 controls), plasma set 2: increased plasma equivalent of DNA per real-time MSP assay [%]
1 | GATA5 (DNA AGTTCGTTTTTAGGTTAGTTTTCGGC; listed as DNA, chemistry not given here) | 97 | 6 | 99
2 | SFRP1 (DNA TGTAGTTTTCGGAGTTAGTGTCGCGC; listed as DNA, chemistry not given here) | 98 | 2 | 96
